Assay results from article PMC6548402, “Increasing molar activity by HPLC purification improves ^68Ga-DOTA-NAPamide tumor accumulation in a B16/F1 melanoma xenograft model” (PLoS ONE, 2019).
Read-outs that look alike come from different tables or passages of the source. Blank lines part the entries; values can stand above or below the molecule they belong to.

Key:
[1] = In vivo biodistribution in B16/F1 xenograft-bearing nude mice; design: species or system mouse; conditions: NMRI-Foxn1nu/Foxn1nu, mouse, iv, 5 MBq, total radioactivity; for tissue uptake at 1 h: 1 h after i.v. injection; for tissue to tissue ratio at 1 h: Fig 3
Procedure: (§1) B16/F1 cells (3x10^6) in a volume of 150 μL 0.9% NaCl were inoculated subcutaneously on the right shoulder of NMRI-Foxn1^nu /Foxn1^nu mice (Janvier Labs, Saint-Berthevin, France). After 1–2 weeks of growth, tumor bearing mice were injected with approximately 5 MBq of ^68Ga-DOTA-NAPamide in a volume of 100 μL 0.9% NaCl into a lateral tail vein via a catheter. Mice were sacrificed and dissected 1 h after injection. The B16F1 tumor, blood, stomach, pancreas, small intestine, colon, liver, spleen, kidney, heart, lung, muscle and femur samples were weighed and uptake of radioactivity was measured by a gamma counter (Wallac 1470 Wizard, Perkin Elmer, Waltham, MA, USA). To determine the effect of unlabeled ligand on tumor uptake, either 50 pmol or 500 pmol non-labeled DOTA-NAPamide were co-injected.

[2] = tested on: MC1R-expressing B16/F1 tumor xenografts; test: as above; design: species or system mouse
Procedure: as §1

[3] = In vivo PET/MRI imaging of mice bearing B16/F1 tumors (SUV by VOI); design: species or system mouse; conditions: NMRI-Foxn1nu/Foxn1nu, mouse, B16/F1 tumor, iv, total radioactivity; for SUV: dynamic PET; for SUV at 1 h: 1 h post injection, n = 1
Procedure: (§2) B16/F1 cells (3x10^6) in a volume of 150 μL 0.9% NaCl were inoculated subcutaneously on the right shoulder of NMRI-Foxn1^nu /Foxn1^nu mice (Janvier Labs, Saint-Berthevin, France). After 1–2 weeks of growth, tumor bearing mice were injected with approximately 15 MBq of ^68Ga-DOTA-NAPamide in a volume of approximately 150 μL 0.9% NaCl into a lateral tail vein via a catheter. Positron emission tomography (PET) / magnetic resonance imaging (MRI) (1 Tesla nanoScan PET/MRI Mediso, Budapest, Hungary) was performed at Berlin Experimental Radionuclide Imaging Center (BERIC), Charité –Universitätsmedizin Berlin. Anatomic MRI scans were acquired using a T2-weighted 2D fast spin echo sequence (T2 FSE 2D) with the following parameters: coronal sequentially, matrix 256x256x20 with dimensions 0.36x0.36x1.5mm^3, TR: 8695 ms, TE: 103 ms, and a flip angle of 180°. PET scans were performed for 90 min starting directly before intravenous injection of tracer. PET images were reconstructed from the raw data with the following image sequence: 6 x 10 s, 6 x 30 s, 5 x 60 s and 8 X 600 s. The tracer standardized uptake value (SUV) in the tumor tissue was determined by manual contouring of a volume of interest (VOI) of the PET images using PMOD 3.610 (PMOD Technologies, Zürich, Switzerland).

B16/F1 tumors = test: as above; design: species or system mouse; conditions: dynamic PET, all tested conditions, after injection
Procedure: as §2

tumor = conditions: 4 h p.i., 111In and 67Ga labels; cited from earlier work
[4] = target: T1, murine MC1R expressed in the B16/F1 cells (Mus musculus, UniProt Q01727); test: Competitive binding (ligand displacement) with 125I-NDP-MSH on whole B16/F1 cells; conditions: displacement of 125I-NDP-MSH, n = 3
T1 construct: endogenous in cells; host or cells: B16/F1 mouse melanoma cells (live, whole cells)
T1 sequence (Q01727 whole entry): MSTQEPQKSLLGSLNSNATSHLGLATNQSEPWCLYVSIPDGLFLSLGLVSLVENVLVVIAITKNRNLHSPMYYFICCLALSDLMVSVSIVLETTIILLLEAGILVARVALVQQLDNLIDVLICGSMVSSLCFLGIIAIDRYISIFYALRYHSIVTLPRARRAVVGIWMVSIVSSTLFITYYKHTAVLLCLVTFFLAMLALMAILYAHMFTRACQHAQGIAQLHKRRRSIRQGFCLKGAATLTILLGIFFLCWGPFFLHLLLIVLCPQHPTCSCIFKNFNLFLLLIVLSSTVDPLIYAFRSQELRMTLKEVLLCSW
Procedure: [Nle^4,d-Phe^7]-melanocyte-stimulating hormone (NDP-MSH) was iodinated with Na^125I by the chloramine-T method and it was purified from unlabeled peptide by HPLC as described before. Saturation and competitive binding studies were performed with live cells. 40.000 B16/F1 cells were seeded per well into a 96-well flat bottom cell culture plate. For competitive binding, medium was removed and 50 μL of binding buffer (50 mM 4-(2-hydroxyethyl)-1-piperazineethanesulfonic acid (HEPES) pH 7.4, 5 mM MgCl2, 1 mM CaCl2, 0.5% BSA, protease inhibitor cocktail cOmplete [Roche Applied Science, Penzberg, Germany]) with increasing concentrations of non-radioactive peptide was added to the cells. Additionally, 50 μL binding buffer with 100,000 counts per minute (cpm) of ^125I-NDP-MSH was added. After 30 minutes of incubation at 37°C, cells were washed 4 times with cold washing buffer (50 mM Tris-HCl pH 7.4, 125 mM NaCl, 0.05% BSA). 100 μL 1 N NaOH was added to lyse cells. Lysates were transferred into vials and measured using a gamma counter (Wallac 1470 Wizard, PerkinElmer, Waltham, MA, USA). The saturation assay was performed by adding 100 μL of binding buffer with increasing amounts of ^125I-NDP-MSH to the cells in the presence or absence of 1 μM of unlabeled NDP-MSH.

[5] = B16/F1 cells, Fig 1B (impact of gallium chelation)

- tissue uptake at 1 h ([1]; B16/F1 tumor, HPLC-purified tracer, ~5 MBq, ± 95% CI, n = 7, read-out: tumor uptake): 7 %ID/g
- tissue uptake at 1 h ([1]; B16/F1 tumor, non-purified tracer (standard procedure), ~5 MBq, ± 95% CI, n = 7, read-out: tumor uptake): 0.78 %ID/g
- tissue uptake at 1 h ([1]; all other tissues (except tumor and kidneys), mostly below, read-out: uptake in all other tissues (except tumor and kidneys)): < 0.5 %ID/g
- tissue to tissue ratio at 1 h ([1]; tumor / all other organs investigated, HPLC-purified tracer, read-out: tumor-to-tissue ratios for all other organs investigated): > 15
- tissue to tissue ratio at 1 h ([1]; tumor / kidney, HPLC-purified tracer, read-out: tumor-to-kidney ratio): 2.33
- decrease in tumor uptake vs purified tracer alone ([2]; 500 pmol coinjected unlabeled peptide, 1 h): approximately 6 fold
- increase in tumor uptake, purified vs non-purified ([2]; 1 h post injection): more than 8 fold
- tumor uptake ([2]; HPLC-purified tracer, 1 h after i.v. injection, ~5 MBq, ± 95% CI, n = 7): 7.0% ± 1.7%
- tumor uptake ([2]; non-purified tracer (standard procedure), 1 h after i.v. injection, ~5 MBq, ± 95% CI, n = 7): 0.78% ± 0.55%
- tumor uptake ([2]; purified tracer + coinjection of 50 pmol (1,000-fold) cold DOTA-NAPamide, 1 h, Fig 4, n = 3, ± 95% CI): 3.8% ± 3.6%
- tumor uptake ([2]; purified tracer + coinjection of 500 pmol (10,000-fold) cold DOTA-NAPamide, 1 h, Fig 4, n = 3, ± 95% CI): 1.1% ± 0.5%
- tumor uptake ([2]; purified tracer alone, 5 MBq (~50 fmol), 1 h, Fig 4, n = 3, ± 95% CI): 6.7% ± 1.9%
- kidney uptake ([2]; purified tracer, 1 h after i.v. injection, ± 95% CI): 3.0% ± 0.6%
- kidney uptake ([2]; standard procedure (non-purified), 1 h after i.v. injection, ± 95% CI): 4.6% ± 2.7%
- SUV ([3]; 15 MBq, the other tumors (other three formulations), read-out: initial amount of radioactivity in the tumor (mean SUV)): 0.43 SUV
- SUV at 1 h ([3]; 15 MBq, purified tracer): 0.42 SUV
- SUV at 1 h ([3]; 15 MBq, unpurified tracer (standard procedure)): 0.119 SUV
- SUV ([3]; animal with 1,000-fold excess of cold peptide mass, read-out: initial amount of radioactivity in the tumor (SUV)): 0.63 SUV
- SUV at 1 h ([3]; purified + 1,000-fold excess of cold peptide): 0.367 SUV
- SUV at 1 h ([3]; purified + 10,000-fold excess of unlabeled peptide): 0.152 SUV
- time to maximum tracer level in the tumors (B16/F1 tumors): 5 to 10 min
Molecule: CCCC[C@H](NC(C)=O)C(=O)N[C@@H](CC(=O)O)C(=O)N[C@@H](Cc1c[nH]cn1)C(=O)N[C@H](Cc1ccccc1)C(=O)N[C@@H](CCCNC(=N)N)C(=O)N[C@@H](Cc1c[nH]c2ccccc12)C(=O)NCC(=O)N[C@@H](CCCCNC(=O)CN1CCN(CC(=O)O)CCN(CC(=O)O)CCN(CC(=O)O)CC1)C(N)=O [68Ga-DOTA-NAPamide, metal not drawn]

- Ki [4, 5]: 0.4 nM
- Ki ([4]; whole B16/F1 cells, Fig 1A): 0.37 nM
Molecule: CCCC[C@H](NC(C)=O)C(=O)N[C@@H](CC(=O)O)C(=O)N[C@@H](Cc1c[nH]cn1)C(=O)N[C@H](Cc1ccccc1)C(=O)N[C@@H](CCCNC(=N)N)C(=O)N[C@@H](Cc1c[nH]c2ccccc12)C(=O)NCC(=O)N[C@@H](CCCCNC(=O)CN1CCN(CC(=O)O)CCN(CC(=O)O)CCN(CC(=O)O)CC1)C(N)=O [DOTA-NAPamide, Acetyl-Nle-Asp-His-D-Phe-Arg-Trp-Gly-Lys(DOTA)-NH2]
- tumor uptake (tumor): 7.56% to 9.43%

- Ki [4, 5]: 0.43 nM
Molecule: Ga-labeled DOTA-NAPamide: DOTA-NAPamide complexed with non-radioactive Ga (XDHFRWGK; Linear alpha-MSH analogue Ac-Nle-Asp-His-D-Phe-Arg-Trp-Gly-Lys(DOTA)-NH2: N-terminal acetyl; X1 = norleucine; D-Phe4; Lys8 side chain conjugated to DOTA chelating non-radioactive Ga; C-terminal amide)
